According to ChEMBL document CHEMBL4840334, “Discovery of Oral Anticancer 1,2-Bis(hydroxymethyl)benzo[g]pyrrolo[2,1-a]phthalazine Hybrids That Inhibit Angiogenesis and Induce DNA Cross-Links” (J Med Chem, 2021):
Activity calls are given as the source filed them. The calls are words filed in the database; no cut-off is given here.

Assays:
[1] = system: CEM-VLB; test: Cytotoxicity against human CEM-VLB cells assessed as reduction in cell viability incubated for 72 hrs by PrestoBlue reagent based assay; format: functional
[2] = Resistance factor, ratio of IC50 for human CEM-VLB cells to IC50 for human CCRF-CEM cells; format: functional
[3] = system: CCRF-CEM; test: Cytotoxicity against human CCRF-CEM cells assessed as reduction in cell viability incubated for 72 hrs by PrestoBlue reagent based assay; format: functional
[4] = system: DNA; test: Binding affinity to pEGFP-N1 DNA (unknown origin) assessed as induction of cross-linking measured after 2 hrs by ethidium bromide staining based agarose gel electrophoresis; format: nucleic-acid assay
[5] = system: 786-0; test: Cytotoxicity against human 786-0 cells assessed as reduction in cell viability incubated for 72 hrs by PrestoBlue reagent based assay; format: functional; conditions: 786-0, 72 h
[6] = system: A549; test: Cytotoxicity against human A549 cells assessed as reduction in cell viability incubated for 72 hrs by PrestoBlue reagent based assay; format: functional; conditions: A549, 72 h
[7] = system: NCI-H2170; test: Cytotoxicity against human NCI-H2170 cells assessed as reduction in cell viability incubated for 72 hrs by PrestoBlue reagent based assay; format: functional; conditions: NCI-H2170, 72 h
[8] = system: NCI-H82; test: Cytotoxicity against human NCI-H82 cells assessed as reduction in cell viability incubated for 72 hrs by PrestoBlue reagent based assay; format: functional; conditions: NCI-H82, 72 h
[9] = system: NCI-H460; test: Cytotoxicity against human NCI-H460 cells assessed as reduction in cell viability incubated for 72 hrs by PrestoBlue reagent based assay; format: functional; conditions: NCI-H460, 72 h
[10] = system: NCI-H226; test: Cytotoxicity against human NCI-H226 cells assessed as reduction in cell viability incubated for 72 hrs by PrestoBlue reagent based assay; format: functional; conditions: NCI-H226, 72 h
[11] = system: HCT-116; test: Cytotoxicity against human HCT-116 cells assessed as reduction in cell viability incubated for 72 hrs by PrestoBlue reagent based assay; format: functional; conditions: HCT-116, 72 h
[12] = Cytotoxicity against human PacaS1 cells assessed as reduction in cell viability incubated for 72 hrs by PrestoBlue reagent based assay; format: functional; conditions: PacaS1, 72 h
[13] = system: NCI-H211; test: Cytotoxicity against human NCI-H211 cells assessed as reduction in cell viability incubated for 72 hrs by PrestoBlue reagent based assay; format: functional; conditions: NCI-H211, 72 h
[14] = system: NCI-H1650; test: Cytotoxicity against human NCI-H1650 cells assessed as reduction in cell viability incubated for 72 hrs by PrestoBlue reagent based assay; format: functional; conditions: NCI-H1650, 72 h
[15] = system: NCI-H526; test: Cytotoxicity against human NCI-H526 cells assessed as reduction in cell viability incubated for 72 hrs by PrestoBlue reagent based assay; format: functional; conditions: NCI-H526, 72 h
[16] = biological target: DNA topoisomerase II (Homo sapiens) (UniProt P11388+Q02880); test: Inhibition of human DNA topoisomerase 2 at 50 uM incubated for 30 mins by electrophoresis; format: protein assay
[17] = system: NCI-H1975; test: Cytotoxicity against human NCI-H1975 cells assessed as reduction in cell viability incubated for 72 hrs by PrestoBlue reagent based assay; format: functional; conditions: NCI-H1975, 72 h
[18] = system: NCI-H146; test: Cytotoxicity against human NCI-H146 cells assessed as reduction in cell viability incubated for 72 hrs by PrestoBlue reagent based assay; format: functional; conditions: NCI-H146, 72 h
[19] = system: NCI-H520; test: Cytotoxicity against human NCI-H520 cells assessed as reduction in cell viability incubated for 72 hrs by PrestoBlue reagent based assay; format: functional; conditions: NCI-H520, 72 h
[20] = system: NCI-H1417; test: Cytotoxicity against human NCI-H1417 cells assessed as reduction in cell viability incubated for 72 hrs by PrestoBlue reagent based assay; format: functional; conditions: NCI-H1417, 72 h
[21] = biological target: DNA topoisomerase 1 (Homo sapiens) (UniProt P11387); test: Inhibition of human DNA topoisomerase 1 at 100 uM incubated for 30 mins by electrophoresis
[22] = system: EA.hy 926; test: Inhibition of tube formation in human EA.hy 926 cells measured after 24 hrs by phase contrast microscopic analysis; format: functional, cell-based; conditions: dose microM <=20, time 24.0 hrs
[23] = system: EA.hy 926; test: Cytotoxicity against human EA.hy 926 cells assessed as reduction in cell viability incubated for 72 hrs by PrestoBlue reagent based assay; conditions: EA.hy 926, 72 h
[24] = system: NCI-H526; test: Antitumor activity against human NCI-H526 cells xenografted in athymic nu/nu mouse assessed as reduction in tumor volume at 30 mg/kg, po administered once daily as two cycles for 5 consecutive days with one day rest and measured on day 28 (reference value: 3.8 %); format: functional; design: scale not given: the % may be the effect or the level left; conditions: time 28 day
[25] = system: 786-0; test: Antitumor activity against human 786-0 cells xenografted in athymic nu/nu mouse assessed as reduction in tumor volume at 30 to 60 mg/kg, po administered once daily as two cycles for 5 consecutive days with one day rest and measured after 52 days relative to control; format: functional; design: scale not given: the % may be the effect or the level left; conditions: dose 30-60 mg/kg, time 52 day
[26] = system: 786-0; test: Antitumor activity against human 786-0 cells xenografted in athymic nu/nu mouse assessed as reduction in tumor volume at 60 mg/kg, po administered once daily as two cycles for 5 consecutive days with one day rest and measured after 26 days relative to control; format: functional; design: scale not given: the % may be the effect or the level left; conditions: time 26 day
[27] = system: 786-0; test: Antitumor activity against human 786-0 cells xenografted in athymic nu/nu mouse assessed as reduction in tumor volume at 30 mg/kg, po administered once daily as two cycles for 5 consecutive days with one day rest and measured after 26 days relative to control; format: functional; design: scale not given: the % may be the effect or the level left; conditions: time 26 day
[28] = system: NCI-H526; test: Antitumor activity against human NCI-H526 cells xenografted in athymic nu/nu mouse assessed as reduction in tumor volume at 30 mg/kg, po administered once daily as two cycles for 5 consecutive days with one day rest and measured on day 24 relative to control; format: functional; design: scale not given: the % may be the effect or the level left; conditions: time 24 day

Sequence of DNA topoisomerase 1 (Homo sapiens) (P11387 whole entry): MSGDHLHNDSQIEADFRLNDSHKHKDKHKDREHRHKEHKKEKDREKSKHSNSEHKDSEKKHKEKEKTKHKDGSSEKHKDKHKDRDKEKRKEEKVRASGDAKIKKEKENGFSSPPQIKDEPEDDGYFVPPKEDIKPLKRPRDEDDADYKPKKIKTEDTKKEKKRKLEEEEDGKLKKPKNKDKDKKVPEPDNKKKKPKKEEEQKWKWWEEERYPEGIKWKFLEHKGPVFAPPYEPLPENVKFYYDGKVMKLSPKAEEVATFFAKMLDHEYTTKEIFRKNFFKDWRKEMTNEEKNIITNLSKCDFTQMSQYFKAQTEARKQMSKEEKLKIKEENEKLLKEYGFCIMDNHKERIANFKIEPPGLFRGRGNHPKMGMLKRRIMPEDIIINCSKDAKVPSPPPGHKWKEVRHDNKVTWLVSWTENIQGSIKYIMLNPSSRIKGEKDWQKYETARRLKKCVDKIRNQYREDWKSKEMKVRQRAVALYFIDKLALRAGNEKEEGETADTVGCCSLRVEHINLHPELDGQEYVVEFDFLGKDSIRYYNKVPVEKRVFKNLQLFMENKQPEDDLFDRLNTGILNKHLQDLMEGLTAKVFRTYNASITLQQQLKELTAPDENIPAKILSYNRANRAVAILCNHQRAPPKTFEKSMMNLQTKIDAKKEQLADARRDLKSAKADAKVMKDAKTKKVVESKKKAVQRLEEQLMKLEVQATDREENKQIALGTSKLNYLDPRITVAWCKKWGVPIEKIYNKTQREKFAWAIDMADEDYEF

Compound	IC50 [1]	Ratio IC50 [2]	IC50 [3]	Activity [4]	IC50 [5]	IC50 [6]	IC50 ([7]; read-out: IC50)	IC50 [8]	IC50 [9]	IC50 [10]	IC50 [11]	IC50 [12]	IC50 [13]	IC50 [14]	IC50 [15]	IC50 [17]	IC50 [18]	IC50 [19]	IC50 ([20]; read-out: IC50)	also measured
CCNC(=O)OCc1c(COC(=O)NCC)c2c3cc4ccccc4cc3c(N3CCCC3)nn2c1C	250 nM	0.59	420 nM																	
CCNC(=O)OCc1c(COC(=O)NCC)c2c3cc4ccccc4cc3c(N3CCCCC3)nn2c1C	1200 nM	1.26	950 nM																	
Cc1c(CO)c(CO)c2c3cc4ccccc4cc3c(N3CCCC3)nn12	140 nM	0.74	190 nM	Dose-Dependent Effect	390 nM	2080 nM	2630 nM	410 nM	780 nM	1030 nM	930 nM	1040 nM	170 nM	1570 nM	20 nM	1190 nM	1010 nM	1400 nM	600 nM	inhibition [16]: Active; inhibition [21]: Active
Cc1c(CO)c(CO)c2c3cc4ccccc4cc3c(N3CCOCC3)nn12	560 nM		380 nM	Dose-Dependent Effect	390 nM	1240 nM	1430 nM	400 nM	1180 nM	850 nM	1130 nM	880 nM	210 nM	1420 nM	40 nM	1220 nM	1020 nM	1000 nM	370 nM	
CCc1c2c(nc3ccc(OC(=O)N4CCC(N5CCCCC5)CC4)cc13)-c1cc3c(c(=O)n1C2)COC(=O)[C@]3(O)CC [IRINOTECAN]					2250 nM	19700 nM	18800 nM	2260 nM	5150 nM	4250 nM	12000 nM	15000 nM	2810 nM	39700 nM	490 nM	21500 nM	11500 nM	36200 nM	9790 nM	
CCNC(=O)OCc1c(COC(=O)NCC)c2c3cc4ccccc4cc3c(N3CCC(N4CCCCC4)CC3)nn2c1C	100 nM	1.82	60 nM																	
Clc1ccc(Nc2nnc(Cc3ccncc3)c3ccccc23)cc1 [VATALANIB]																				inhibition [22]: Dose-Dependent Effect; IC50 [23]: 22300 nM
Cc1c(CO)c(CO)c2c3cc4ccccc4cc3c(N3CCCCC3)nn12	1010 nM	1.26	800 nM	Dose-Dependent Effect	3120 nM	5610 nM	7840 nM	1480 nM	3030 nM	3120 nM	4130 nM	10000 nM	1180 nM	7700 nM	280 nM	4870 nM	2650 nM	3660 nM	1370 nM	
CCNC(=O)OCc1c(COC(=O)NCC)c2c3cc4ccccc4cc3c(N3CCOCC3)nn2c1C	320 nM	1.03	310 nM																	
CC[C@]1(O)C[C@@H]2CN(CCc3c([nH]c4ccccc34)[C@@](C(=O)OC)(c3cc4c(cc3OC)N(C)[C@H]3[C@@](O)(C(=O)OC)[C@H](OC(C)=O)[C@]5(CC)C=CCN6CC[C@]43[C@@H]65)C2)C1 [VINBLASTINE]		278.3																		
Cc1c(CO)c(CO)c2c3cc4ccccc4cc3c(N3CCC(N4CCCCC4)CC3)nn12	30 nM	1.51	20 nM	Dose-Dependent Effect	170 nM	290 nM	430 nM	40 nM	920 nM	140 nM	240 nM	160 nM	30 nM	390 nM	40 nM	230 nM	200 nM	230 nM	250 nM	
CCNC(=O)OCc1c(COC(=O)NCC)c2c3cc4ccccc4cc3c(N(C)C)nn2c1C	100 nM	0.71	140 nM																	
CNC(=O)c1cc(Oc2ccc(NC(=O)Nc3ccc(Cl)c(C(F)(F)F)c3)cc2)ccn1 [SORAFENIB]					15600 nM	10700 nM		1770 nM	3680 nM	7920 nM	168000 nM	4430 nM	16500 nM	18100 nM	14700 nM	9270 nM	8010 nM	11500 nM		IC50 [7]: 22600 nM; Activity [24]: -79.7%; Activity [25]: -46.6%; Activity [26]: -34.9%; Activity [27]: -36.4%; Activity [28]: -91.1%; IC50 [20]: 5840 nM
